Source: patent US12570988B2, “Aptamers that bind thiamine analogs and derivatives” (MeiraGTx Gene Regulation Limited, priority 2020, dated 2026)

Tests used:
riboswitch 15D10 [1] = test: Luciferase reporter with 15D10 riboswitch (Luci-15D10) in AML12 cells; type: cell-based, mouse; conditions: Mus musculus, AML12, 24 h, 50 μM, AML12 cells, read-out: Fold increase in riboswitch 15D10-regulated luciferase expression, AML
riboswitch 15D10 [2] = test: Luciferase reporter with 15D10 riboswitch (Luci-15D10) in HEK 293 cells; type: cell-based, human; conditions: Homo sapiens, HEK293, 24 h, 50 μM, HEK 293 cells, read-out: Fold increase in riboswitch 15D10-regulated luciferase expression, HEK
Procedure: Transfection: 3.5×10^4 human embryonic kidney (HEK) 293 cells were plated in a 96-well flat bottom plate the day before transfection. Plasmid DNA (500 ng) was added to a tube or a 96-well U-bottom plate. […] Then, 50 μL of this diluted transfection reagent was added to the DNA, mixed, and incubated at RT for 20 min. Finally, 7 μL of this solution was added to a well of cells in the 96-well plate. Four hours after transfection, medium containing transfection solution was replaced by medium containing either TPP, fursultiamine, prosultiamine, bisbentiamine, beclotiamine hydrochloride, or sulbutiamine as aptamer inducers.
Firefly luciferase assay of cultured cells: Twenty-four hours after media change, plates were removed from the incubator, and equilibrated to RT for several minutes on a lab bench, then aspirated. Glo-lysis buffer (Promega, 100 μL, RT) was added, and the plates allowed to remain at RT for at least 5 minutes. Then, the well contents were mixed by 50 μL trituration, and 20 μL of each sample was mixed with 20 μL of bright-glo reagent (Promega) that had been diluted to 10% in glo-lysis buffer. 96 wells were spaced on an opaque white 384-well plate. Following a 5 min incubation at RT, luminescence was measured using a Tecan machine with 500 ms read time. The luciferase activity was expressed as mean arbitrary light units (ALU)±S.D., and fold induction was calculated as the quotient of the luciferase activity obtained from cells with TPP or analog treatment divided by the luciferase activity obtained from cells without TPP or analog treatment.

In the case of `C/C(=C(\CCO)SCOC(=O)c1ccc2c(c1)C(C)(C)CCC2(C)C)N(C=O)Cc1cnc(C)nc1N` [Compound M99, (Z)-((2-(N-((4-amino-2-methylpyrimidin-5-yl)methyl)formamido)-5-hydroxypent-2-en-3-yl)thio)methyl 5,5,8,8-tetramethyl-5,6,7,8-tetrahydronaphthalene-2-carboxylate], the fold induction at 50 µM (riboswitch 15D10 [1]; Table 2) was 0.4 and the fold induction at 50 µM (riboswitch 15D10 [2]; Table 2) was 0.2.
With `CCOc1ccc2ccccc2c1C(=O)OCS/C(CCO)=C(/C)N(C=O)Cc1cnc(C)nc1N` [Compound M100, (Z)-((2-(N-((4-amino-2-methylpyrimidin-5-yl)methyl)formamido)-5-hydroxypent-2-en-3-yl)thio)methyl 2-ethoxy-1-naphthoate] the fold induction at 50 µM (riboswitch 15D10 [1]; Table 2) was 0.4 and the fold induction at 50 µM (riboswitch 15D10 [2]; Table 2) was 1.1.
`C/C(=C(\CCO)SCOC(=O)C(C)(C)Cc1ccc2ccccc2c1)N(C=O)Cc1cnc(C)nc1N` [Compound M101, (Z)-((2-(N-((4-amino-2-methylpyrimidin-5-yl)methyl)formamido)-5-hydroxypent-2-en-3-yl)thio)methyl 2,2-dimethyl-3-(naphthalen-2-yl)propanoate] gave a fold induction at 50 µM (riboswitch 15D10 [1]; Table 2) of 128 and a fold induction at 50 µM (riboswitch 15D10 [2]; Table 2) of 88.6.
`C/C(=C(\CCO)SCOC(=O)C(C)(c1ccccc1)c1ccccc1)N(C=O)Cc1cnc(C)nc1N` [Compound M103, (Z)-((2-(N-((4-amino-2-methylpyrimidin-5-yl)methyl)formamido)-5-hydroxypent-2-en-3-yl)thio)methyl 2,2-diphenylpropanoate] gave a fold induction at 50 µM (riboswitch 15D10 [1]; Table 2) of 0.5 and a fold induction at 50 µM (riboswitch 15D10 [2]; Table 2) of 0.9.
Molecule `C/C(=C(\CCO)SCOC(=O)C(c1ccccc1)(c1ccccc1)c1ccccc1)N(C=O)Cc1cnc(C)nc1N` [Compound M105, (Z)-((2-(N-((4-amino-2-methylpyrimidin-5-yl)methyl)formamido)-5-hydroxypent-2-en-3-yl)thio)methyl 2,2,2-triphenylacetate] has a fold induction at 50 µM (riboswitch 15D10 [1]; Table 2) of 0.2 and a fold induction at 50 µM (riboswitch 15D10 [2]; Table 2) of 0.2.
In the case of `C/C(=C(\CCO)SCOC(=O)C(C)(C)c1ccc2ccccc2c1)N(C=O)Cc1cnc(C)nc1N` [Compound M107, (Z)-((2-(N-((4-amino-2-methylpyrimidin-5-yl)methyl)formamido)-5-hydroxypent-2-en-3-yl)thio)methyl 2-methyl-2-(naphthalen-2-yl)propanoate], the fold induction at 50 µM (riboswitch 15D10 [1]; Table 2) was 40.2 and the fold induction at 50 µM (riboswitch 15D10 [2]; Table 2) was 26.
`COc1ccc2c(C(=O)S/C(CCO)=C(/C)N(C=O)Cc3cnc(C)nc3N)cccc2c1` [Compound M108, (Z)—S-(2-(N-((4-amino-2-methylpyrimidin-5-yl)methyl)formamido)-5-hydroxypent-2-en-3-yl) 6-methoxynaphthalene-1-carbothioate] showed a fold induction at 50 µM (riboswitch 15D10 [1]; Table 2) of 129 and a fold induction at 50 µM (riboswitch 15D10 [2]; Table 2) of 75.8.
For `CCOc1ccc(C(=O)S/C(CCO)=C(/C)N(C=O)Cc2cnc(C)nc2N)c2ccccc12` [Compound M109, (Z)—S-(2-(N-((4-amino-2-methylpyrimidin-5-yl)methyl)formamido)-5-hydroxypent-2-en-3-yl) 4-ethoxynaphthalene-1-carbothioate], the fold induction at 50 µM (riboswitch 15D10 [1]; Table 2) was 87.3 and the fold induction at 50 µM (riboswitch 15D10 [2]; Table 2) was 22.6.
`CCc1ccc(C(=O)S/C(CCO)=C(/C)N(C=O)Cc2cnc(C)nc2N)c2ccccc12` [Compound M110, (Z)—S-(2-(N-((4-amino-2-methylpyrimidin-5-yl)methyl)formamido)-5-hydroxypent-2-en-3-yl) 4-ethylnaphthalene-1-carbothioate] was tested, and the fold induction at 50 µM (riboswitch 15D10 [1]; Table 2) was 146 and the fold induction at 50 µM (riboswitch 15D10 [2]; Table 2) was 65.7.
`C/C(=C(\CCO)SC(=O)c1cccc2c(Br)cccc12)N(C=O)Cc1cnc(C)nc1N` [Compound M111, (Z)—S-(2-(N-((4-amino-2-methylpyrimidin-5-yl)methyl)formamido)-5-hydroxypent-2-en-3-yl) 5-bromonaphthalene-1-carbothioate] showed a fold induction at 50 µM (riboswitch 15D10 [1]; Table 2) of 175 and a fold induction at 50 µM (riboswitch 15D10 [2]; Table 2) of 181.
`C/C(=C(\CCO)SC(=O)c1ccccc1Oc1ccccc1)N(C=O)Cc1cnc(C)nc1N` [Compound M113, (Z)—S-(2-(N-((4-amino-2-methylpyrimidin-5-yl)methyl)formamido)-5-hydroxypent-2-en-3-yl) 2-phenoxybenzothioate] showed a fold induction at 50 µM (riboswitch 15D10 [1]; Table 2) of 272, a fold induction at 50 µM (riboswitch 15D10 [1]; Table 3) of 348 and a fold induction at 50 µM (riboswitch 15D10 [2]; Table 2) of 213. For the same molecule, the fold induction at 50 µM (riboswitch 15D10 [2]; Table 3) was 265.
For `C/C(=C(\CCO)SC(=O)c1ccc(C(C)(C)C)cc1)N(C=O)Cc1cnc(C)nc1N` [Compound M114, (Z)—S-(2-(N-((4-amino-2-methylpyrimidin-5-yl)methyl)formamido)-5-hydroxypent-2-en-3-yl) 4-(tert-butyl)benzothioate], the fold induction at 50 µM (riboswitch 15D10 [1]; Table 2) was 88.8 and the fold induction at 50 µM (riboswitch 15D10 [2]; Table 2) was 50.1.
Work on `CCOc1cc(C(C)(C)C)ccc1C(=O)S/C(CCO)=C(/C)N(C=O)Cc1cnc(C)nc1N` [Compound M115, (Z)—S-(2-(N-((4-amino-2-methylpyrimidin-5-yl)methyl)formamido)-5-hydroxypent-2-en-3-yl) 4-(tert-butyl)-2-ethoxybenzothioate] yielded a fold induction at 50 µM (riboswitch 15D10 [1]; Table 2) of 52.1 and a fold induction at 50 µM (riboswitch 15D10 [2]; Table 2) of 19.9.
For `C/C(=C(\CCO)SC(=O)c1c(F)cccc1Oc1ccccc1)N(C=O)Cc1cnc(C)nc1N` [Compound M126, (Z)—S-(2-(N-((4-amino-2-methylpyrimidin-5-yl)methyl)formamido)-5-hydroxypent-2-en-3-yl) 2-fluoro-6-phenoxybenzothioate], the fold induction at 50 µM (riboswitch 15D10 [1]; Table 3) was 305 and the fold induction at 50 µM (riboswitch 15D10 [2]; Table 3) was 147.
With `C/C(=C(\CCO)SC(=O)c1c(Cl)cccc1Oc1ccccc1)N(C=O)Cc1cnc(C)nc1N` [Compound M127, (Z)—S-(2-(N-((4-amino-2-methylpyrimidin-5-yl)methyl)formamido)-5-hydroxypent-2-en-3-yl) 2-chloro-6-phenoxybenzothioate] the fold induction at 50 µM (riboswitch 15D10 [1]; Table 3) was 7.39 and the fold induction at 50 µM (riboswitch 15D10 [2]; Table 3) was 0.46.
In the case of `C/C(=C(\CCO)SC(=O)c1c(C)cccc1Oc1ccccc1)N(C=O)Cc1cnc(C)nc1N` [Compound M128, (Z)—S-(2-(N-((4-amino-2-methylpyrimidin-5-yl)methyl)formamido)-5-hydroxypent-2-en-3-yl) 2-methyl-6-phenoxybenzothioate], the fold induction at 50 µM (riboswitch 15D10 [1]; Table 3) was 7.87 and the fold induction at 50 µM (riboswitch 15D10 [2]; Table 3) was 0.56.
`C/C(=C(\CCO)SC(=O)c1c(F)cccc1OCc1ccccc1)N(C=O)Cc1cnc(C)nc1N` [Compound M129, (Z)—S-(2-(N-((4-amino-2-methylpyrimidin-5-yl)methyl)formamido)-5-hydroxypent-2-en-3-yl) 2-(benzyloxy)-6-fluorobenzothioate] showed a fold induction at 50 µM (riboswitch 15D10 [1]; Table 3) of 167 and a fold induction at 50 µM (riboswitch 15D10 [2]; Table 3) of 10.9.
In the case of `C/C(=C(\CCO)SC(=O)c1c(F)cccc1Oc1cccc(Cl)c1)N(C=O)Cc1cnc(C)nc1N` [Compound M130, (Z)—S-(2-(N-((4-amino-2-methylpyrimidin-5-yl)methyl)formamido)-5-hydroxypent-2-en-3-yl) 2-(3-chlorophenoxy)-6-fluorobenzothioate], the fold induction at 50 µM (riboswitch 15D10 [1]; Table 3) was 329 and the fold induction at 50 µM (riboswitch 15D10 [2]; Table 3) was 110.
In the case of `C/C(=C(\CCO)SC(=O)c1cc(Cl)ccc1Oc1ccccc1)N(C=O)Cc1cnc(C)nc1N` [Compound M131, (Z)—S-(2-(N-((4-amino-2-methylpyrimidin-5-yl)methyl)formamido)-5-hydroxypent-2-en-3-yl) 5-chloro-2-phenoxybenzothioate], the fold induction at 50 µM (riboswitch 15D10 [1]; Table 3) was 509 and the fold induction at 50 µM (riboswitch 15D10 [2]; Table 3) was 741.
With `C/C(=C(\CCO)SC(=O)c1ccc(C)cc1Oc1ccccc1Cl)N(C=O)Cc1cnc(C)nc1N` [Compound M133, (Z)—S-(2-(N-((4-amino-2-methylpyrimidin-5-yl)methyl)formamido)-5-hydroxypent-2-en-3-yl) 2-(2-chlorophenoxy)-4-methylbenzothioate] the fold induction at 50 µM (riboswitch 15D10 [1]; Table 3) was 273 and the fold induction at 50 µM (riboswitch 15D10 [2]; Table 3) was 100.
In the case of `C/C(=C(\CCO)SC(=O)c1cc(Cl)ccc1Oc1ccc(F)cc1)N(C=O)Cc1cnc(C)nc1N` [Compound M134, (Z)—S-(2-(N-((4-amino-2-methylpyrimidin-5-yl)methyl)formamido)-5-hydroxypent-2-en-3-yl) 5-chloro-2-(4-fluorophenoxy)benzothioate], the fold induction at 50 µM (riboswitch 15D10 [1]; Table 3) was 408 and the fold induction at 50 µM (riboswitch 15D10 [2]; Table 3) was 557.
With `C/C(=C(\CCO)SC(=O)c1ccccc1Oc1cccc(C#N)c1)N(C=O)Cc1cnc(C)nc1N` [Compound M135, (Z)—S-(2-(N-((4-amino-2-methylpyrimidin-5-yl)methyl)formamido)-5-hydroxypent-2-en-3-yl) 2-(3-cyanophenoxy)benzothioate] the fold induction at 50 µM (riboswitch 15D10 [1]; Table 3) was 44.5 and the fold induction at 50 µM (riboswitch 15D10 [2]; Table 3) was 87.5.
Molecule `C/C(=C(\CCO)SC(=O)c1ccccc1Oc1ccccc1Cl)N(C=O)Cc1cnc(C)nc1N` [Compound M136, (Z)—S-(2-(N-((4-amino-2-methylpyrimidin-5-yl)methyl)formamido)-5-hydroxypent-2-en-3-yl) 2-(2-chlorophenoxy)benzothioate] has a fold induction at 50 µM (riboswitch 15D10 [1]; Table 3) of 263 and a fold induction at 50 µM (riboswitch 15D10 [2]; Table 3) of 132.
